Experimental data taken from ChEMBL document CHEMBL4837239, “Identification of Thieno[3,2-d]pyrimidine Derivatives as Dual Inhibitors of Focal Adhesion Kinase and FMS-like Tyrosine Kinase 3” (J Med Chem, 2021).

Experiments:
[1] = system: BaF3; assay: Antiproliferative activity against mouse Ba/F3 cells harbouring FLT3 ITD F691L mutant assessed as growth inhibition measured after 72 hrs by CellTiter-Glo assay; assay type: functional; conditions: Mus musculus, BaF3
[2] = system: BaF3; assay: Antiproliferative activity against mouse Ba/F3 cells harbouring FLT3 D835Y mutant assessed as growth inhibition measured after 72 hrs by CellTiter-Glo assay; assay type: functional; conditions: Mus musculus, BaF3
[3] = system: BaF3; assay: Antiproliferative activity against mouse Ba/F3 cells harbouring FLT3 ITD F691I mutant assessed as growth inhibition measured after 72 hrs by CellTiter-Glo assay; assay type: functional; conditions: Mus musculus, BaF3
[4] = system: BaF3; assay: Antiproliferative activity against mouse Ba/F3 cells harbouring FLT3 ITD D835Y mutant assessed as growth inhibition measured after 72 hrs by CellTiter-Glo assay; assay type: functional; conditions: Mus musculus, BaF3
[5] = biological target: Focal adhesion kinase 1 (Homo sapiens, UniProt Q05397); assay: Inhibition of recombinant FAK (unknown origin) by radiometric kinase assay
Chain of Focal adhesion kinase 1 (Q05397 whole entry): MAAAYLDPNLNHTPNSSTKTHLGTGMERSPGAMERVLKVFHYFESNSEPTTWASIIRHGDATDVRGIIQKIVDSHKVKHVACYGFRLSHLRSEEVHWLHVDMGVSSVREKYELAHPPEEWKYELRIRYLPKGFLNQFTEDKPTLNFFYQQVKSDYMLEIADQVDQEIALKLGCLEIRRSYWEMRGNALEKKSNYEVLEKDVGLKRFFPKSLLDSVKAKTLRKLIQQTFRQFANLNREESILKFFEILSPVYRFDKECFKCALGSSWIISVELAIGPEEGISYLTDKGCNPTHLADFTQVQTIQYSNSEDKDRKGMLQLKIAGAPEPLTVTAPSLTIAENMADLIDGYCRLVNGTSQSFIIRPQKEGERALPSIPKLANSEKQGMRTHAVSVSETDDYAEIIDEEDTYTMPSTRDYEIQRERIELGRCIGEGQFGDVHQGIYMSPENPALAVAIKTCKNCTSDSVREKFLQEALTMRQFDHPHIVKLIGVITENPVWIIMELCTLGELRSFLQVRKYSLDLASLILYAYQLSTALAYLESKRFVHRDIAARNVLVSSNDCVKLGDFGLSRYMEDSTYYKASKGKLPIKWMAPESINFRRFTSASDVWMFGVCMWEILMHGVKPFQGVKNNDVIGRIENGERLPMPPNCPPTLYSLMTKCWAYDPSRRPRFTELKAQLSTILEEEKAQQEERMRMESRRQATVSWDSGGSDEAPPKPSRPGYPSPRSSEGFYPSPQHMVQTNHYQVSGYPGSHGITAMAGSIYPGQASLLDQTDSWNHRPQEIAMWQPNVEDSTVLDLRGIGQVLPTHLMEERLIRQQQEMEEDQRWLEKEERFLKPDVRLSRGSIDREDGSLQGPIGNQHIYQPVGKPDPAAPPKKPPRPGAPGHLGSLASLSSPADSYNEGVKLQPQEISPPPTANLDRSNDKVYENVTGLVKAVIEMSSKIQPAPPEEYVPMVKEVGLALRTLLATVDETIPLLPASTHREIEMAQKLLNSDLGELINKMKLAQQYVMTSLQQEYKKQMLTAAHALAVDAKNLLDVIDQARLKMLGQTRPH

[6] = system: HCT-116; assay: Antiproliferative activity against human HCT-116 cells assessed as growth inhibition measured after 72 hrs by CellTiter-Glo assay; assay type: functional
[7] = Antiproliferative activity against human A375P cells assessed as growth inhibition measured after 72 hrs by CellTiter-Glo assay; assay type: functional
[8] = system: MDA-MB-231; assay: Antiproliferative activity against human MDA-MB-231 cells assessed as growth inhibition measured after 72 hrs by CellTiter-Glo assay; assay type: functional
[9] = Metabolic stability in human liver microsomes assessed as compound remaining at 1 uM measured after 1 hr; assay type: ADME, Microsome; conditions: read-out: Stabilty
[10] = Inhibition of FLT3 D835Y (unknown origin); parameters: species or system Homo sapiens
[11] = system: BaF3; assay: Antiproliferative activity against mouse Ba/F3 cells harbouring FLT3 ITD mutant assessed as growth inhibition measured after 72 hrs by CellTiter-Glo assay; assay type: functional; conditions: Mus musculus, BaF3
[12] = system: BaF3; assay: Antiproliferative activity against mouse Ba/F3 cells assessed as growth inhibition measured after 72 hrs by CellTiter-Glo assay; assay type: functional; conditions: Mus musculus, BaF3

SMILES	IC50 [5]	remaining at 1 h, 1 µM [9]	GI50 ([6]; Homo sapiens, HCT-116)	GI50 ([7]; Homo sapiens, A375P)	GI50 ([8]; Homo sapiens, MDA-MB-231)	further results
CCc1nc(C(N)=O)c(Nc2ccc(N3CCC(N4CCN(C)CC4)CC3)c(OC)c2)nc1NC1CCOCC1 [GILTERITINIB]						GI50 [1]: 82.8 nM; GI50 [2]: 2 nM; GI50 [3]: 259 nM; GI50 [4]: 5 nM
COc1cc(Nc2ncc3scc(-c4cccc(C(=O)O)c4)c3n2)cc(OC)c1OC	49 nM					
CS(=O)(=O)Nc1cccc(-c2csc3cnc(Nc4ccc(N5CCCCC5)cc4)nc23)c1	68 nM	58%				GI50 [6]: 1490 nM; GI50 [7]: 2780 nM; GI50 [8]: 3380 nM
CS(=O)(=O)Nc1cccc(-c2csc3cnc(NC4CC4)nc23)c1	2350 nM					GI50 [6]: 43200 nM; GI50 [7]: 36600 nM; GI50 [8]: 43500 nM
CCN1CCN(c2ccc(Nc3ncc4scc(-c5cccc(C(=O)NC)c5)c4n3)cc2)CC1	36 nM	71.1%	300 nM	1360 nM	1260 nM	
CCN1CCN(c2ccc(Nc3ncc4scc(-c5cccc(S(C)(=O)=O)c5)c4n3)cc2)CC1	18 nM	55.5%	510 nM	640 nM	520 nM	IC50 [10]: < 0.5 nM; GI50 [11]: 20.6 nM; GI50 [12]: 427 nM; GI50 [1]: 170 nM; GI50 [2]: 8.7 nM; GI50 [3]: 245 nM; GI50 [4]: 25.2 nM
COc1cc(Nc2ncc3scc(-c4ccccn4)c3n2)cc(OC)c1OC	18 nM					
CS(=O)(=O)Nc1cccc(-c2csc3cnc(N)nc23)c1	4030 nM					GI50 [6]: 33200 nM; GI50 [7]: 43300 nM; GI50 [8]: 27800 nM
CCN1CCN(c2ccc(Nc3ncc4scc(-c5ccccc5[N+](=O)[O-])c4n3)cc2)CC1	361 nM		990 nM	1500 nM	1010 nM	
CCOC(=O)c1cccc(-c2csc3cnc(Nc4ccc(N5CCN(CC)CC5)cc4)nc23)c1	321 nM		1100 nM	1650 nM	950 nM	
CCN1CCN(c2ccc(Nc3ncc4scc(-c5cccc(N(C)S(C)(=O)=O)c5)c4n3)cc2)CC1	21 nM	57.2%	190 nM	220 nM	450 nM	IC50 [10]: < 0.5 nM; GI50 [11]: 31.7 nM; GI50 [12]: 695 nM; GI50 [1]: 117 nM; GI50 [2]: 53 nM; GI50 [3]: 301 nM; GI50 [4]: 14.3 nM
CCN1CCN(c2ccc(Nc3ncc4scc(-c5cccnc5)c4n3)cc2)CC1	31 nM	68.9%	9130 nM	710 nM	820 nM	IC50 [10]: < 0.5 nM; GI50 [11]: 20 nM; GI50 [12]: 596 nM; GI50 [1]: 140 nM; GI50 [2]: 7.1 nM; GI50 [3]: 299 nM; GI50 [4]: 28.2 nM
COc1cc(Nc2ncc3scc(-c4ccccc4NS(C)(=O)=O)c3n2)cc(OC)c1OC	78 nM					
CCN1CCN(c2ccc(Nc3ncc4scc(-c5ccccn5)c4n3)cc2)CC1	12 nM	54.2%	270 nM	420 nM	290 nM	IC50 [10]: < 0.5 nM; GI50 [11]: 9.1 nM; GI50 [12]: 206 nM; GI50 [1]: 55 nM; GI50 [2]: 1.2 nM; GI50 [3]: 164 nM; GI50 [4]: 14.2 nM
COc1cc(Nc2ncc3scc(-c4cccc(N(C)S(C)(=O)=O)c4)c3n2)cc(OC)c1OC	35 nM					
CNC(=O)c1ccc(Nc2ncc(C(F)(F)F)c(NCc3nccnc3N(C)S(C)(=O)=O)n2)cc1 [DEFACTINIB]			9130 nM	5940 nM	11400 nM	
COc1cc(Nc2ncc3scc(-c4cccc(S(C)(=O)=O)c4)c3n2)cc(OC)c1OC	91 nM					
CCN1CCN(c2ccc(Nc3ncc4scc(-c5cccc(C(=O)O)c5)c4n3)cc2)CC1	59 nM		4350 nM	12300 nM	4640 nM	
CCN1CCN(c2ccc(Nc3ncc4scc(-c5cnc6ccccc6c5)c4n3)cc2)CC1	29 nM	44.1%	370 nM	8050 nM	880 nM	
CN(C)c1ccc(Nc2ncc3scc(-c4cccc(NS(C)(=O)=O)c4)c3n2)cc1	18 nM	63.8%				GI50 [6]: 2270 nM; GI50 [7]: 3480 nM; GI50 [8]: 3320 nM
CCN1CCN(c2ccc(Nc3ncc4scc(-c5ccccc5S(C)(=O)=O)c4n3)cc2)CC1	194 nM		1880 nM	4270 nM	8820 nM	
COc1cc(Nc2ncc3scc(-c4cccnc4)c3n2)cc(OC)c1OC	26 nM					
CNC(=O)c1ccccc1-c1csc2cnc(Nc3cc(OC)c(OC)c(OC)c3)nc12	55 nM					
COc1cc(Nc2ncc3scc(-c4ccccc4N(C)S(C)(=O)=O)c3n2)cc(OC)c1OC	15 nM					
CC(C)(C)c1cc(NC(=O)Nc2ccc(-c3cn4c(n3)sc3cc(OCCN5CCOCC5)ccc34)cc2)no1 [QUIZARTINIB]						GI50 [11]: 0.6 nM; GI50 [12]: > 10000 nM; GI50 [1]: 68.2 nM; GI50 [2]: 2.2 nM; GI50 [3]: > 10000 nM; GI50 [4]: 12.9 nM
CCN1CCN(c2cccc(Nc3ncc4scc(-c5cccc(NS(C)(=O)=O)c5)c4n3)c2)CC1	13 nM	100%	420 nM	900 nM	1420 nM	
CCN1CCN(c2ccc(Nc3ncc4scc(-c5cccc(S(=O)(=O)NC)c5)c4n3)cc2)CC1	11 nM	60.2%	170 nM	400 nM	420 nM	IC50 [10]: < 0.5 nM; GI50 [11]: 34.7 nM; GI50 [12]: 468 nM; GI50 [1]: 226 nM; GI50 [2]: 6.1 nM; GI50 [3]: 243 nM; GI50 [4]: 13.2 nM
CS(=O)(=O)Nc1cccc(-c2csc3cnc(NC4CCCCC4)nc23)c1	717 nM					GI50 [6]: 11300 nM; GI50 [7]: 17800 nM; GI50 [8]: 7730 nM
CS(=O)(=O)Nc1cccc(-c2csc3cnc(Nc4ccccc4)nc23)c1	30 nM	49.6%				GI50 [6]: 2570 nM; GI50 [7]: 7520 nM; GI50 [8]: 26900 nM
COc1cc(Nc2ncc3scc(-c4ccccc4S(C)(=O)=O)c3n2)cc(OC)c1OC	668 nM					
